Assay results as given in patent US5169769A, “Method of hydroxylating substituted 3-aminopyridinones using mammalian tissue” (Merck & Co., Inc., priority 1991, dated 1992).

Target: T1, recombinant HIV reverse transcriptase (HIV RTR) (Human immunodeficiency virus type 1 group M subtype B, UniProt P04585)
T1 construct: recombinant HIV reverse transcriptase (HIV RTR)
Assay: Reverse Transcriptase Assay: incorporation of tritiated deoxyguanosine monophosphate into acid-precipitable cDNA
Type: biochemical
Conditions: purified HIV RTR; poly r(C).oligo d(G)12-18 and dGTP at about Km; 37° C. for 45 minutes; read-out: calculated IC50
Procedure: Reverse Transcriptase Assay
The assay measures the incorporation of tritiated deoxyguanosine monophosphate by recombinant HIV reverse transcriptase (HIV RTR) (or other RT) into acid-precipitable cDNA at the Km values of dGTP and poly r(C).cndot.oligo d(G)12-18. Compounds (I) and (II) inhibit this incorporation.
Thirty uL of a reaction mixture containing equal volumes of: 500 mM Tris.cndot.HCl (pH 8.2), 300 mM MgCl2, 1200 mM KCl, 10 mM DTT, 400 μg/mL poly r(c).cndot.oligo d(G) [prepared by dissolving 1.5 mg (25 U) poly r(C).cndot.oligo d(G) in 1.5 ml sterile distilled H2 O and diluting to 400 μg/ml], 0.1 μCi/μl [^3 H] dGTP, 160 μM dGTP, were added to 10 μl sterile distilled H2 O, 2.5 μl of potential inhibitor. Ten μL of 3.2 nM purified HIV RTR were added to start the reaction. The mixture was incubated at 37° C. for 45 minutes.
After incubation was complete, the tubes were cooled in ice for 5 minutes. Ice-cold 13% TCA containing 10 mM NaPPi (200 μl) was added and the mixture incubated on ice for 30 minutes. The precipitated cDNA was removed by filtration using presoaked glass filters [TCA, NaPPi ]. The precipitate was then washed with 1N HCl, 10 mM NaPPi. The filter discs were then counted in a scintillation counter. […]
Compounds (I) and (II) were evaluated using the methodology described above.

| Structure (SMILES) | IC50 |
| --- | --- |
| CCc1cc(NCc2nc3c(C)ccc(C)c3o2)c(=O)[nH]c1CO [Compound (II), 3-[(4,7-dimethylbenzoxazol-2-yl)methylamino]-5-ethyl-6-hydroxymethyl-2(1H)-pyridinone] | ~33 nM |
| Cc1[nH]c(=O)c(NCc2nc3c(C)ccc(C)c3o2)cc1C(C)O (centres unmarked) [Compound (I), 3-[(4,7-dimethylbenzoxazol-2-yl)methylamino]-5-(1-hydroxyethyl)-6-methyl-2(1H)-pyridinone] | ~405 nM |
